One experiment deals with T1, BRAF (Homo sapiens, UniProt P15056).
T1 construct: GST; purchased Millipore Sigma B4062-10UG
Nature of the experiment: BRAF kinase activity assay (ADP-Glo). It is filed as biochemical. Conditions: Table 3; 10 μM ATP, kinase-dead MEK1 substrate. An outline of the steps: (§1)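 ADP-Glo luminescence read after 2 h reactions at 30° C containing 0.375 nM GST-kinase, kinase-dead MEK1 (75 nM), ATP at 10 μM, pH 7.5 HEPES/MgCl2/DTT, 0.05% DMSO. Compounds dosed from 100 to 0.01 nM (nine points); IC50 from variable-slope fit of % inhibition.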
(In ADP-Glo the light output rises with the ADP produced.)

The target of a further experiment is T2, CRAF (Homo sapiens, UniProt P04049).
T2 construct: fused on or other part: GST tag (N-terminal according to the vendor's product)
T2 sequence (P04049 whole entry Y340E/Y341E, form open, the tested form may be a part): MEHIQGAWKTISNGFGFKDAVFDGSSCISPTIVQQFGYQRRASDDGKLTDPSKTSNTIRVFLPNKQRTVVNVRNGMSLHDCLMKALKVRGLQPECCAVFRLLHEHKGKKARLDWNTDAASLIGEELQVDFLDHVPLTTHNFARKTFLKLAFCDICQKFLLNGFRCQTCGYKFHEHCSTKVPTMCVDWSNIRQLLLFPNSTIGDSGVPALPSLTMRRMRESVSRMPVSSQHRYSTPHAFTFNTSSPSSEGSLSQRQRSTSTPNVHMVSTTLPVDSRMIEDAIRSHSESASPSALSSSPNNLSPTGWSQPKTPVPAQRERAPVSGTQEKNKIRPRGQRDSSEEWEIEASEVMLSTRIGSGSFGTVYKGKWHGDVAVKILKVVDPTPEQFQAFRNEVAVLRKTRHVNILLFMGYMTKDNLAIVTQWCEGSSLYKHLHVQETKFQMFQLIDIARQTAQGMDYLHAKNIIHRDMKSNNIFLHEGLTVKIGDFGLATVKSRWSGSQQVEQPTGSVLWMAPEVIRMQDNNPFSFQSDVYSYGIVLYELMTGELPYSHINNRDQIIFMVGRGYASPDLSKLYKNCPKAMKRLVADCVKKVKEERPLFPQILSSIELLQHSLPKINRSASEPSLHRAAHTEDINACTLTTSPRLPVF
Nature of the experiment: CRAF kinase activity assay (ADP-Glo). The class given is biochemical. The conditions noted are these: Table 3; 10 μM ATP, kinase-dead MEK1 substrate. An outline of the steps: as §1

The term IC50 denotes the concentration needed to halve the response being measured.

A value given as a limit tells only on which side of the number the result lay.

T1 sequence (P15056 whole entry): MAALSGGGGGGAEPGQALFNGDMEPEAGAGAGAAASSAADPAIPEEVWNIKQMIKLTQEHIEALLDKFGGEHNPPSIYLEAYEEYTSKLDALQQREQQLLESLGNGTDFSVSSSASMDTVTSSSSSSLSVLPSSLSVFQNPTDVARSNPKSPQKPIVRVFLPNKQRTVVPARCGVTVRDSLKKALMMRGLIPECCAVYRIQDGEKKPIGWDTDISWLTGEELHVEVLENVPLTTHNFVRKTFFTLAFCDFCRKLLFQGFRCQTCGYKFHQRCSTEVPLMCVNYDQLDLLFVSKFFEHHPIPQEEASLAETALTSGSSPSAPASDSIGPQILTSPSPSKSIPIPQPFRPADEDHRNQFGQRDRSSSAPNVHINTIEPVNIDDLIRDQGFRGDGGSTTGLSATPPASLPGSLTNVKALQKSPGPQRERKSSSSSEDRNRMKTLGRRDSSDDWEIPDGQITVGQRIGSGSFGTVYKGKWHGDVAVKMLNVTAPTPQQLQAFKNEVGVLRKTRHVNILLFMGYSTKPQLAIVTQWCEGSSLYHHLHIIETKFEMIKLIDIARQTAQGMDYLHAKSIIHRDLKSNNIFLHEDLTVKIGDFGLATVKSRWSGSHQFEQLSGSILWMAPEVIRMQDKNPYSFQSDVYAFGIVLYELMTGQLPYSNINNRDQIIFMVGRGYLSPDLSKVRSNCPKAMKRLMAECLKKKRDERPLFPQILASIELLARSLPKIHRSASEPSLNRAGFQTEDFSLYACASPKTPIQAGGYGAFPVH

`N#CC1(c2cccc3c2ncn3-c2nc3c(Nc4c(F)ccc(NS(=O)(=O)c5cccc(Cl)c5Cl)c4F)ncnc3s2)CC1` [Example 122]: the half-inhibitory concentration (IC50) at BRAF is 1 to 10 nM; on CRAF, less than 10 nM.
Turning to `Cc1c(F)cccc1S(=O)(=O)Nc1ccc(F)c(Nc2ncnc3sc(-n4cc(C(=O)N5C6CCC5CN(C)C6)c5ccccc54)nc23)c1F` [Example 44], the IC50 is less than 1 nM on BRAF and less than 10 nM on CRAF.
